Several values for one entry are separate records, joined by “and”; a condition that tells them apart may be missing. Identical values can stand only once. Marks after values point to notes of the source that are not given here.
Assays:
alfalfa seeds = test: Determination of alfalfa seed germination percentage; format: in vivo; settings: for Germination rate, average: average of 3 replicas
Description: Treated and non-treated seeds (5 g or number of seeds counted per replicate) were placed on the surface of a plastic tray. Three plastic trays were stacked vertically and top tray was filled with 100 ml of sterile deionized water or tap water which fed to the lower trays to maintain uniform moisture content for the seeds. The seeds were incubated at 22° C. for 72 hr. Each evaluation was based on three replicates of 200-400 seeds each. A seed was considered to have germinated if the seed coat was broken and a visible sprout was extending at least 8 mm from the original seed. Swollen seeds or ruptured seeds with sprout tissue still inside were not counted as germinated, because such seeds rarely sprouted completely after an additional 24 hr of incubation.

E. coli O157:H7 = test: Inactivation of E. coli O157:H7 on alfalfa seeds inoculated with 10^8 CFU/g; format: cell-based, Escherichia coli O157:H7
Description: Five isolates of Escherichia coli O157:H7, including strain 932 (human isolate), E009 (beef isolate), E0018 (cattle isolate), E0122 (cattle isolate), E0139 (deer jerky isolate); and five isolates of Salmonella typhimurium DT104, including strain H2662 (cattle isolate), 11942A (cattle isolate), 13068A (cattle isolate), 152N17-1 (dairy isolate) and H3279 (human isolate) were used. Nalidixic acid-resistant (50 μg/ml) E. coli O157:H7 were used to facilitate enumeration. Each E. coli O157:H7 and Salmonella strain was grown in tryptic soy broth (TSB, Beckon Dickinson, Sparks, Md.) at 37° C. for 18 hr. Approximately equal cell numbers of each of the five strains were combined and used as a 5-strain mixture with cell numbers being adjusted by spectrophotometric (Spectronic Instruments, Rochester, N.Y.) determination as described in Zhao et al., (2009) J. Food Prot. 72: 928-936, incorporated herein by reference in its entirety. Bacterial cell numbers were confirmed by plating 0.1 ml of serial dilutions (1:10) in 0.1% peptone on tryptic soy agar (TSA, Beckon Dickinson) and Sorbitol MacConkey agar (SMA, Oxoid, Hampshire, UK) for E. coli O157:H7, and TSA and XLD agar (Beckon Dickinson) for Salmonella and incubating all plates at 37° C. for 24 hr, after which colonies were counted.
Levulinic acid (0.5%) and 0.05% sodium dodecyl sulfate (SDS) obtained from Sigma-Aldrich (St. Louis, Mo.) were tested in combination at 21±2° C. for their antimicrobial activity to E. coli O157:H7 and S. typhimurium on alfalfa seeds as a wash treatment. Calcium hypochlorite (Arch Chemicals, Smyrna, Ga.) at 20,000 μg/ml (ppm) was used as the positive control, and deionized water was used as the negative control.
Before each trial, 25 ml of sterile tap water and 25 g of alfalfa seeds were added to a WHIRL-PAK® bag (Nasco, Fort Atkinson, Wis.) and pummeled in a stomacher blender at 150 rpm for 1 min. Duplicate 0.1 ml portions of the contents were plated on SMA, XLD, and TSA plates to detect E. coli O157:H7 and Salmonella, and enumerate aerobic bacteria counts according to the protocols described below. Only E. coli O157:H7-negative and Salmonella-negative alfalfa seeds were used. Dry seeds (50 g) were individually placed in a sterilized glass beaker (1 L) and 5 ml of a mixture of E. coli O157:H7 or S. typhimurium DT 104 (high inocula at 10^8-10^9 CFU/ml and low inocula at 10^3-10^4 CFU/ml) was inoculated on the surface of the seeds in each glass beaker under a laminar flow hood. A sterile plastic spoon was used to mix for 2 min the seeds with bacterial suspension. The glass beakers were held in a laminar flow hood for 1 hr, 4 hr, 24 hr, 48 hr, and 72 hr with intermittent mixing by plastic spoon before use for chemical treatment.
Inactivation of E. coli O157:H7 and Salmonella on Alfalfa Seeds: Inoculated, dried alfalfa seeds (50 g samples) were placed in a 1000 ml glass beaker containing 200 ml of treatment solution and agitated by a magnetic stir bar at 150 ppm at 21° C. for 0, 1, 2, 5, 10, 20, 30, and 60 min. Following treatment, 25 g of seeds was placed in a stomacher bag containing 25 ml 0.1M phosphate buffer, pH 7.2 (PBS) for levulinic acid plus SDS-treated seeds or neutralizing buffer (50×) for calcium hypochlorite-treated seeds and pummeled for 1 min. at 150 rpm in a stomacher blender (Seward, Ltd., Worthing, England). The suspension was serially (1:10) diluted in 0.1% peptone water and 0.1 ml of each dilution was surface-plated in duplicate onto TSA and Sorbitol MacConkey agar containing 50 μg nalidixic acid/ml (TSA-NA and SMA-NA) for E. coli O157:H7, and on TSA and XLD containing ampicillin (32 μg/ml), tetracycline (16 μg/ml) and streptomycin (64 μg/ml) (TSA+ and XLD+) for S. typhimurium DT 104. All plates were incubated at 37° C. for 48 hr.

[1] = treatment for 1 h at 21° C., Ca(OCl)2 pH 11.4

[Ca+2].[O-]Cl.[O-]Cl [20,000 ppm, Ca(OCl)2, pH 11.4, Calcium hypochlorite]
Effect on alfalfa seed germination (alfalfa seeds; 1 hr at 21° C., compared to tap water): substantially reduced germination percentage | Germination rate, average (alfalfa seeds; [1]): 47% | Germination rate, average (alfalfa seeds; treatment for 1 h at 21° C., listed as 20,000 ppm calcium hypochlorite): 47.3% | Germination rate, average (alfalfa seeds; treatment for 1 h at 21° C., row): 47% | Germination Ratio (Percentage), per replica (alfalfa seeds; [1]): 62% and 34% and 46% | Germination Ratio (germinated/total seeds), per replica (alfalfa seeds; [1]): 124/200 and 68/200 and 92/200 | E. coli O157:H7 counts on seeds (E. coli O157:H7; dried for 4 hr, treated for 0 min (actual time 0 delayed by 20 to 30 seconds)): +^b (below the minimum detection level by direct plating (<0.7 log CFU/ml), but positive by enrichment culture) | E. coli O157:H7 counts on seeds (E. coli O157:H7; dried for 4 hr, treated for 1 min): + (below the minimum detection level by direct plating (<0.7 log CFU/ml), but positive by enrichment culture) | E. coli O157:H7 counts on seeds (E. coli O157:H7; dried for 4 hr, treated for 2 min): −^c | E. coli O157:H7 counts on seeds (E. coli O157:H7; dried for 4 hr, treated for 5 min): + (below the minimum detection level by direct plating (<0.7 log CFU/ml), but positive by enrichment culture) | E. coli O157:H7 counts on seeds (E. coli O157:H7; dried for 4 hr, treated for 10 min): 1.7 CFU/g | E. coli O157:H7 counts on seeds (E. coli O157:H7; dried for 4 hr, treated for 20 min): 2.0 CFU/g | E. coli O157:H7 counts on seeds (E. coli O157:H7; dried for 4 hr, treated for 30 min): 1.7 CFU/g | E. coli O157:H7 counts on seeds (E. coli O157:H7; dried for 4 hr, treated for 60 min): + (below the minimum detection level by direct plating (<0.7 log CFU/ml), but positive by enrichment culture) | E. coli O157:H7 counts on seeds (E. coli O157:H7; dried for 24 hr, treated for 0 min): + (below the minimum detection level by direct plating (<0.7 log CFU/ml), but positive by enrichment culture) | E. coli O157:H7 counts on seeds (E. coli O157:H7; dried for 24 hr, treated for 1 min): − | E. coli O157:H7 counts on seeds (E. coli O157:H7; dried for 24 hr, treated for 2 min): − | E. coli O157:H7 counts on seeds (E. coli O157:H7; dried for 24 hr, treated for 5 min): − | E. coli O157:H7 counts on seeds (E. coli O157:H7; dried for 24 hr, treated for 10 min): + (below the minimum detection level by direct plating (<0.7 log CFU/ml), but positive by enrichment culture) | E. coli O157:H7 counts on seeds (E. coli O157:H7; dried for 24 hr, treated for 20 min): − | E. coli O157:H7 counts on seeds (E. coli O157:H7; dried for 24 hr, treated for 30 min): − | E. coli O157:H7 counts on seeds (E. coli O157:H7; dried for 24 hr, treated for 60 min): + (below the minimum detection level by direct plating (<0.7 log CFU/ml), but positive by enrichment culture) | E. coli O157:H7 counts on seeds (E. coli O157:H7; dried for 48 hr, treated for 0 min): + (below the minimum detection level by direct plating (<0.7 log CFU/ml), but positive by enrichment culture) | E. coli O157:H7 counts on seeds (E. coli O157:H7; dried for 48 hr, treated for 1 min): − | E. coli O157:H7 counts on seeds (E. coli O157:H7; dried for 48 hr, treated for 2 min): + (below the minimum detection level by direct plating (<0.7 log CFU/ml), but positive by enrichment culture) | E. coli O157:H7 counts on seeds (E. coli O157:H7; dried for 48 hr, treated for 5 min): − | E. coli O157:H7 counts on seeds (E. coli O157:H7; dried for 48 hr, treated for 10 min): − | E. coli O157:H7 counts on seeds (E. coli O157:H7; dried for 48 hr, treated for 20 min): − | E. coli O157:H7 counts on seeds (E. coli O157:H7; dried for 48 hr, treated for 30 min): − | E. coli O157:H7 counts on seeds (E. coli O157:H7; dried for 48 hr, treated for 60 min): − | E. coli O157:H7 counts on seeds (E. coli O157:H7; dried for 72 hr, treated for 0 min): + (below the minimum detection level by direct plating (<0.7 log CFU/ml), but positive by enrichment culture) | E. coli O157:H7 counts on seeds (E. coli O157:H7; dried for 72 hr, treated for 1 min): + (below the minimum detection level by direct plating (<0.7 log CFU/ml), but positive by enrichment culture) | E. coli O157:H7 counts on seeds (E. coli O157:H7; dried for 72 hr, treated for 2 min): + (below the minimum detection level by direct plating (<0.7 log CFU/ml), but positive by enrichment culture) | E. coli O157:H7 counts on seeds (E. coli O157:H7; dried for 72 hr, treated for 5 min): − | E. coli O157:H7 counts on seeds (E. coli O157:H7; dried for 72 hr, treated for 10 min): + (below the minimum detection level by direct plating (<0.7 log CFU/ml), but positive by enrichment culture) | E. coli O157:H7 counts on seeds (E. coli O157:H7; dried for 72 hr, treated for 20 min): + (below the minimum detection level by direct plating (<0.7 log CFU/ml), but positive by enrichment culture) | E. coli O157:H7 counts on seeds (E. coli O157:H7; dried for 72 hr, treated for 30 min): − | E. coli O157:H7 counts on seeds (E. coli O157:H7; dried for 72 hr, treated for 60 min): − | Reduction of E. coli O157:H7 population (E. coli O157:H7; seeds dried for 4 hr, treated for up to 60 min): greater than 6 log CFU/g | E. coli O157:H7 detection after treatment (E. coli O157:H7; seeds dried for 24 hr, treated for 5 min): only detectable on seeds by selective enrichment culture
